# Results published in US6677310B1, “Ring-expanded nucleosides and nucleotides” (Nabi, priority 1999, dated 2004).
# Read-outs that look alike come from different tables or passages of the source.
# Legend:
# [1] = system: panel of cancer cell lines; assay: In vitro anti-cancer assay, panel of cancer cell lines (sulforhodamine B); assay type: cell-based, human; conditions: leukemia, non-small cell lung, colon, CNS, melanoma, ovarian, renal, prostate and breast cancer cell lines; read-out: GI50 values, range over the panel
# NCI-H226 = assay type: cell-based, human; conditions: NCI-H226 (Non-Small Cell Lung Cancer), 48 h; for CC50: read-out: LC50 (the source's name)
# NCI-H460 = assay type: cell-based, human; conditions: NCI-H460 (Non-Small Cell Lung Cancer), 48 h; for CC50: read-out: LC50 (the source's name)
# COLO 205 = assay: SRB anti-cancer assay, Colon Cancer; assay type: cell-based, human; conditions: COLO 205 (Colon Cancer), 48 h
# HCT-116 = assay: SRB anti-cancer assay, Colon Cancer; assay type: cell-based, human; conditions: HCT-116 (Colon Cancer), 48 h; for CC50: read-out: LC50 (the source's name)
# HCT-15 = assay: SRB anti-cancer assay, Colon Cancer; assay type: cell-based, human; conditions: HCT-15 (Colon Cancer), 48 h; for CC50: read-out: LC50 (the source's name)
# SF-268 = assay: SRB anti-cancer assay, CNS Cancer; assay type: cell-based, human; conditions: SF-268 (CNS Cancer), 48 h; for CC50: read-out: LC50 (the source's name)
# MALME-3M = assay: SRB anti-cancer assay, Melanoma; assay type: cell-based, human; conditions: MALME-3M (Melanoma), 48 h
# SK-MEL-28 = assay: SRB anti-cancer assay, Melanoma; assay type: cell-based, human; conditions: SK-MEL-28 (Melanoma), 48 h
# OVCAR-3 = assay: SRB anti-cancer assay, Ovarian Cancer; assay type: cell-based, human; conditions: OVCAR-3 (Ovarian Cancer), 48 h; for CC50: read-out: LC50 (the source's name)
# A498 = assay: SRB anti-cancer assay, Renal Cancer; assay type: cell-based, human; conditions: 48 h; for CC50: read-out: LC50 (the source's name)
# MCF7 = assay: SRB anti-cancer assay, Breast Cancer; assay type: cell-based, human; conditions: 48 h; for CC50: read-out: LC50 (the source's name)
# MDA-MB- 231/ATCC = assay: SRB anti-cancer assay, Breast Cancer; assay type: cell-based, human; conditions: MDA-MB- 231/ATCC (Breast Cancer), 48 h; for CC50: read-out: LC50 (the source's name)
# HS 578T = assay: SRB anti-cancer assay, Breast Cancer; assay type: cell-based, human; conditions: HS 578T (Breast Cancer), 48 h; for CC50: read-out: LC50 (the source's name)
# Hepatitis B virus (HBV) = assay: Anti-HBV assay in 2.2.15 cells (virion DNA, HBV RI); assay type: cell-based; conditions: for HBV RI, percentage of control / Virion DNA, percentage of control: 10 μM, day 9, 2.2.15 cells
# Experimental: The anti-HBV assays were performed according to the published protocol of Korba and Milman, (Korba, B. E.; Milman, G. Antiviral Res., 15, 217 1991), using cultures of 2.2.15 cells. In brief, the assay consisted of (a) seeding the chronically HBV-producing human liver cells (Acs et al. Proc. Nat. Acad. Sci., 84, 464 1987) into 24-well tissue culture plates, and growing to confluence, (b) adding test compounds daily for a continuous 9-day period, harvesting culture media after day 9 and (c) lysing treated cells 24 hours following day 9 of treatment for the analysis of extracellular virion DNA and intracellular HBV genomic forms.
# (§1) Anti-HBV activity and the toxicity against confluent 2.2.15 cells were determined by the previously described procedure (Korba, B. E., et al. Antivir. Res., 19:55-70, 1992; Korba, B. E., et al. Antivir. Res., 15:217-228, 1991). Briefly, confluent cultures of HBV transfected 2.2.15 cells were maintained on either 96-well or 24-well flat-bottomed tissue culture plates in RPMI 1640 medium with 2% fetal bovine serum (FBS). The cells were treated with test compounds daily for nine consecutive days. The culture media were harvested on day 9 to quantify the amount of virion DNA. On day 10, the cells were lysed to quantify the amount of intracellular HBV replicative intermediates (RI). The quantification of virion DNA and the HBV RI were done by blot hybridization methods (Korba, B. E., et al. Antivir. Res., 19:55-70, 1992; Korba, B. E., et al. Antivir. Res., 15:217-228, 1991). Cellular toxicity against separate cultures of confluent 2.2.15 cells was measured after treatment with the compounds for nine days under identical culture conditions as those used for the antiviral assay (Korba, B. E., et al. Antivir. Res., 19:55-70, 1992). Uptake of neutral red dye by treated cells was compared with dye uptake by untreated control cells (Korba, B. E., et al. Antivir. Res., 19:55-70, 1992).
# [2] = system: HBV ribonucleic acids (RNA); assay: HBV RNA levels in 2.2.15 cells (blot hybridization); assay type: cell-based, Hepatitis B virus; conditions: 10 μM, day 9, 2.2.15 cells
# Experimental: as §1
# These compounds were evaluated for their ability to inhibit viral RNA synthesis in 2.2.15 cells. Since HBV uses host cellular RNA polymerase II during the transcription of viral RNA from the covalently closed circular HBV DNA during its replication, any effect on the synthesis of viral RNA by these compounds would mean interference with the cellular RNA polymerase which could lead to unacceptable cellular toxicity.
# [3] = system: HBV proteins (HBsAg, HBcAg, HBeAg); assay: HBV protein levels in 2.2.15 cells (semi-quantitative EIA); assay type: cell-based, Hepatitis B virus; conditions: 10 μM, day 9, 2.2.15 cells
# HOP-92 = assay type: cell-based, human; conditions: HOP-92 (Non-Small Cell Lung Cancer), 48 h; for CC50: read-out: LC50 (the source's name)
# U251 = assay: SRB anti-cancer assay, CNS Cancer; assay type: cell-based, human; conditions: 48 h; for CC50: read-out: LC50 (the source's name)
# [4] = extracellular HBV virion DNA, 10 fold inhibition, 9 days, read-out: EC90 Virion
# [5] = extracellular HBV virion DNA, 9 days, read-out: EC50 Virion
smiles,measurement,setting,value
"N=c1nc(N)c2ncn([C@@H]3O[C@H](COC(=O)c4ccccc4)[C@@H](OC(=O)c4ccccc4)[C@H]3OC(=O)c3ccccc3)c2c(N)n1 [4,8-Diamino-6H-6-imino-1(2′,3′,5′-tri-O-benzoyl-β-D-ribofuranosyl)imidazo[4,5-e][1,3]diazepine]",GI50,[1],0.1 to 10 µM
same,GI50,NCI-H226,6.89 µM
same,TGI,NCI-H226,25.1 µM
same,CC50,NCI-H226,72.4 µM
same,GI50,NCI-H460,2.52 µM
same,TGI,NCI-H460,8.42 µM
same,CC50,NCI-H460,34.7 µM
same,GI50,COLO 205,1.49 µM
same,LC50,COLO 205,5.55 µM
same,TGI,COLO 205,2.87 µM
same,GI50,HCT-116,3.76 µM
same,TGI,HCT-116,21.2 µM
same,CC50,HCT-116,87.5 µM
same,GI50,HCT-15,5.77 µM
same,TGI,HCT-15,19.5 µM
same,CC50,HCT-15,50.8 µM
same,GI50,SF-268,13.2 µM
same,TGI,SF-268,31.3 µM
same,CC50,SF-268,74.2 µM
same,GI50,MALME-3M,3.04 µM
same,LC50,MALME-3M,33.8 µM
same,TGI,MALME-3M,8.07 µM
same,GI50,SK-MEL-28,10.4 µM
same,LC50,SK-MEL-28,65.8 µM
same,TGI,SK-MEL-28,26.2 µM
same,GI50,OVCAR-3,10.9 µM
same,TGI,OVCAR-3,23 µM
same,CC50,OVCAR-3,48.7 µM
same,GI50,A498,20 µM
same,TGI,A498,37.8 µM
same,CC50,A498,71.8 µM
same,GI50,MCF7,1.47 µM
same,TGI,MCF7,3.12 µM
same,CC50,MCF7,6.61 µM
same,GI50,MDA-MB- 231/ATCC,5 µM
same,TGI,MDA-MB- 231/ATCC,22 µM
same,CC50,MDA-MB- 231/ATCC,61.6 µM
same,GI50,HS 578T,15.8 µM
same,TGI,HS 578T,40.1 µM
same,CC50,HS 578T,> 100 µM
"N=c1[nH]c(=O)c2ncn([C@@H]3O[C@H](CO)[C@@H](O)[C@H]3O)c2c(=O)[nH]1 [Compound 14-1, 6-Imino-6H-1-β-D-ribofuranosyl-4,5,7,8-tetrahydroimidazo[4,5-e][1,3]diazepine-4,8-dione]","HBV RI, percentage of control",Hepatitis B virus (HBV),15 ± 2 %
same,"Virion DNA, percentage of control",Hepatitis B virus (HBV),4 ± 1 %
same,EC90,"Hepatitis B virus (HBV); assay repeated three times, read-out: average EC90 for HBV virion inhibition",1.29 µM
same,EC90,Hepatitis B virus (HBV); [4],0.989 ± 0.11 µM
same,EC50,Hepatitis B virus (HBV); [5],0.131 µM
same,EC90,"Hepatitis B virus (HBV); intracellular HBV DNA replicative intermediates, 10 fold inhibition, 9 days, read-out: EC90 HBV RI",7.3 ± 0.7 µM
same,EC50,"Hepatitis B virus (HBV); intracellular HBV DNA replicative intermediates, 9 days, read-out: EC50 HBV RI",0.604 µM
same,EC50,"Hepatitis B virus (HBV); transfected hepatoma cell line 2.2.15, Example 13, read-out: EC50 (anti-HBV activity)",0.17 µM
same,"2.1 Kb RNA, percentage of control",[2],96 ± 7%
same,"3.6 Kb RNA, percentage of control",[2],89 ± 9%
same,"HBcAg, percentage of control",[3],75 ± 4%
same,"HBeAg, percentage of control",[3],50 ± 5 %
same,"HBsAg, percentage of control",[3],67 ± 6%
same,GI50,HOP-92,> 100 µM
same,TGI,HOP-92,>100 µM
same,CC50,HOP-92,> 100 µM
same,GI50,NCI-H226,> 100 µM
same,TGI,NCI-H226,>100 µM
same,CC50,NCI-H226,> 100 µM
same,GI50,NCI-H460,> 100 µM
same,TGI,NCI-H460,>100 µM
same,CC50,NCI-H460,> 100 µM
same,GI50,COLO 205,> 100 µM
same,LC50,COLO 205,> 100 µM
same,TGI,COLO 205,>100 µM
same,GI50,HCT-116,> 100 µM
same,TGI,HCT-116,>100 µM
same,CC50,HCT-116,> 100 µM
same,GI50,HCT-15,> 100 µM
same,TGI,HCT-15,>100 µM
same,CC50,HCT-15,> 100 µM
same,GI50,SF-268,> 100 µM
same,TGI,SF-268,>100 µM
same,CC50,SF-268,> 100 µM
same,GI50,U251,> 100 µM
same,TGI,U251,>100 µM
same,CC50,U251,> 100 µM
same,GI50,MALME-3M,> 100 µM
same,LC50,MALME-3M,> 100 µM
same,TGI,MALME-3M,>100 µM
same,GI50,SK-MEL-28,> 100 µM
same,LC50,SK-MEL-28,> 100 µM
same,TGI,SK-MEL-28,>100 µM
same,GI50,OVCAR-3,> 100 µM
same,TGI,OVCAR-3,>100 µM
same,CC50,OVCAR-3,> 100 µM
same,GI50,A498,> 100 µM
same,TGI,A498,>100 µM
same,CC50,A498,> 100 µM
same,TGI,MDA-MB- 231/ATCC,>100 µM
same,CC50,MDA-MB- 231/ATCC,> 100 µM
"N=c1nc(N)c2ncn([C@@H]3O[C@H](CO)[C@@H](O)[C@H]3O)c2c(N)n1 [Compound 14-2, 4,8-Diamino-6H-6-imino-1-β-D-ribofuranosylimidazo[4,5-e][1,3]diazepine]","HBV RI, percentage of control",Hepatitis B virus (HBV),6 ± 1 %
same,"Virion DNA, percentage of control",Hepatitis B virus (HBV),1 ± 1 %
same,EC90,Hepatitis B virus (HBV); [4],4.7 ± 0.5 µM
same,EC50,Hepatitis B virus (HBV); [5],0.397 ± 0.03 µM
same,"2.1 Kb RNA, percentage of control",[2],96 ± 8%
same,"3.6 Kb RNA, percentage of control",[2],103 ± 9%
same,"HBcAg, percentage of control",[3],109 ± 6%
same,"HBeAg, percentage of control",[3],8 ± 3 %
same,"HBsAg, percentage of control",[3],108 ± 18%
same,GI50,[1],1 to 10 µM
same,GI50,HOP-92,19.2 µM
same,TGI,HOP-92,40 µM
same,CC50,HOP-92,83.7 µM
same,GI50,NCI-H226,33.2 µM
same,TGI,NCI-H226,>100 µM
same,CC50,NCI-H226,> 100 µM
same,GI50,NCI-H460,15.4 µM
same,TGI,NCI-H460,31.4 µM
same,CC50,NCI-H460,64.1 µM
same,GI50,COLO 205,21 µM
same,LC50,COLO 205,63.4 µM
same,TGI,COLO 205,36.5 µM
same,GI50,HCT-116,13.3 µM
same,TGI,HCT-116,26.8 µM
same,CC50,HCT-116,54.2 µM
same,GI50,HCT-15,11.8 µM
same,TGI,HCT-15,27.4 µM
same,CC50,HCT-15,63.5 µM
same,GI50,SF-268,15.7 µM
same,TGI,SF-268,34.8 µM
same,CC50,SF-268,77.2 µM
same,GI50,U251,20.1 µM
same,TGI,U251,45 µM
same,CC50,U251,> 100 µM
same,GI50,MALME-3M,2.2 µM
same,LC50,MALME-3M,25.3 µM
same,TGI,MALME-3M,6.79 µM
same,GI50,SK-MEL-28,25.4 µM
same,LC50,SK-MEL-28,> 100 µM
same,TGI,SK-MEL-28,81.1 µM
same,GI50,OVCAR-3,3.53 µM
same,TGI,OVCAR-3,13.2 µM
same,CC50,OVCAR-3,42.3 µM
same,GI50,A498,23.1 µM
same,TGI,A498,74.7 µM
same,CC50,A498,> 100 µM
same,GI50,MCF7,5.81 µM
same,TGI,MCF7,22.3 µM
same,CC50,MCF7,63.4 µM
same,GI50,MDA-MB- 231/ATCC,23.8 µM
same,TGI,MDA-MB- 231/ATCC,52.8 µM
same,CC50,MDA-MB- 231/ATCC,> 100 µM
same,GI50,HS 578T,7.58 µM
same,TGI,HS 578T,31.6 µM
same,CC50,HS 578T,> 100 µM
